The values below are quoted from earlier work in patent publication US6348220B1, “Phenethylisothiocyanate nutraceutical compositions and methods” (Rutgers, the State University of New Jersey, priority 1999, dated 2002).

The subject of the data set is oxidation of nitrosamines from tobacco. Conditions: human smokers, PEITC from fresh watercress, urinary metabolites (Hecht et al., 1995).

Each structure is given as a SMILES string.

With `S=C=NCCc1ccccc1` [PEITC, phenethyl isothiocyanate], the “effect on oxidation of nitrosamines from tobacco” value is “specifically inhibit the oxidation of nitrosamines from tobacco”.
